From patent US9616062B2, “Cyclin dependent kinase inhibitors and methods of use” (priority 2009, dated 2017) come the findings set out here.

The subject of experiment [1] is purified human peripheral B cells (CD19+). The experiment is described as follows: Human B cell proliferation after anti-IgM stimulation (BrdU incorporation). The experiment is classed as cell-based. Here is the method: FIG. 20: CDK4/6 inhibitors suppress B cell proliferation after stimulation through BCR. B cells were purified by Automacs selection of CD19+ cells. The BrdU incorporation of purified human peripheral B cells was determined after anti-IgM stimulation with or without CDK4/6 inhibitor treatment. The fraction of proliferating B cells reduced ˜10 fold after L4D inhibition. L4D=2BrIC
Similar results were seen using human lymphocytes. […] Human lymphocytes are sorted to T(CD3+) and B(CD19+) cells and treated in vitro with CDK4/6 inhibitor prior to stimulation with PMA and Inomycin (P+I)+OKT3 (Tcells) or IgM (Bcells), with proliferation assessed by BrdU uptake and Ki67y expression, and activation assessed by CD25 expression. […] In FIG. 15, the effects of CDK4/6 inhibition on specific Tcell fractions is assessed, with and without TCR, showing CDK4/6 inhibition has a greater effect on proliferation of memory cells relative to naïve cells. […] These alterations in proliferation are associated with decreased T cell activation as measured by CD25 expression.
Cohorts of wild type mice were treated with vehicle or a CDK4/6 inhibitor as in FIG. 11. […] Unstimulated mice were treated for 24 hours with PD0332991 and homeostatic B cell proliferation measured by Ki67 staining after appropriate sorting. […]
Background: Dividing cells build labelled thymidine or BrdU into new DNA.

Experiment [2] deals with human peripheral blood T cells (memory and naive). The experiment is described as follows: Human peripheral blood T cell proliferation after PMA and ionomycin stimulation (BrdU, Ki-67 FACS). Format: cell-based. Here is the method:
FIG. 13: CDK4/6 inhibitors suppress T cell proliferation upon stimulation through TCR pathway in both memory and naïve compartments. Human peripheral blood T cells were purified using Automacs by CD3 positive selection before being treated with CDK4/6 inhibitors and stimulated with PMA and Inomycin for 48 hrs. The proliferation of memory […] T cells after stimulation by PMA and Inomycin was measured by FACS staining of BrdU+ or Ki-67+ cells. The percentages of inhibition are shown, which indicates more inhibition of memory compartment than naïve compartment.
FIG. 14: CDK4/6 inhibitors suppress T cell proliferation upon stimulation through TCR pathway. […] Proliferation determined by BrdU or Ki67 incorporation. […]
FIG. 15: Changes of CD4 T cell composition after CDK4/6 inhibition. […] The memory and terminal differentiated T cell fractions as assessed by BrdU incorporation are reduced after CDK4/6 inhibition. […]
FIG. 16: Changes of CD4 T cell composition after CDK4/6 inhibition. […] The memory and terminal differentiated T cell fractions as assessed by Ki67 staining are reduced after CDK4/6 inhibition. […]
Similar results were seen using human lymphocytes. […] In FIG. 15, the effects of CDK4/6 inhibition on specific Tcell fractions is assessed, with and without TCR, showing CDK4/6 inhibition has a greater effect on proliferation of memory cells relative to naïve cells. […]

Experiment [3] concerns murine memory and naive T cells. The experiment is described as follows: Homeostatic T cell proliferation in mice (BrdU incorporation, Ki67). The experiment is classed as in vivo, mouse. The note with it: murine cells, acute inhibition. Here is the method: FIG. 11A: Acute inhibition of CDK4/6 selectively suppresses memory T cell homeostatic proliferation in mice. Mice were treated with PD0332991 (150 mg/kg by oral gavage). Proliferation of T-cells were assessed using BrdU and flow cytometry.
Animals were treated with CDK4/6 inhibitor (PD0332991, open bars) or vehicle (shaded bars) for 24 hours and euthanized. Splenocytes were isolated and stained for B and T cell markers. After gating on appropriate populations, Ki67 staining was performed as an indicator of proliferation and S-phase. Error bars show +/−SEM.
Acute, pharmacologic inhibition of CDK4/6 suppresses lymphocyte proliferation with the most pronounced effect on memory T cell homeostatic proliferation and germinal center formation in mice. To determine whether inhibiting CDK4/6 affects memory cell generation and maintenance, mice were treated with selective CDK4/6 inhibitors, PD 0332991 or an unrelated selective CDK4/6 inhibitor, 2BrIC. 2BrIC was synthesized by OTAVA Chemicals (Kiev, Ukraine) and can be prepared according to methods described in Zhu et al., J. Med. Chem. 46, 2027-2030 (2003).

Experiment [4] deals with renal cell proliferation in female FVB wt mice. In words: EdU incorporation into whole kidney of cisplatin-treated mice (flow cytometry). The experiment is classed as in vivo, mouse. The note with it: kidney single cell suspension, 72 h; cisplatin 15 mg/kg IP; PD0332991 100 mg/kg per day in chow or no drug. The protocol: FIG. 6: CDK4/6 inhibition blocks EdU incorporation into whole kidney in mice treated with cisplatin. […] EdU ([…]) was given IP every 24 hours prior to sacrifice. Kidneys were collected and single cell isolates were prepared and stained for EdU incorporation. Proliferation was assessed by flow cytometry. Data represents % of EdU staining in untreated, cisplatin-treated and cisplatin/PD0332991 treated cells.
[…] Proliferation was assessed by using BrdU (1 mg IP injection) every 6 hours for 24 hours prior to sacrifice or […] (0.1 mg IP) every 24 hours for 3 days prior to sacrifice.
Kidneys were harvested from mice and single cells were isolated using a gentleMACS™ tissue dissociator (Miltinyi Biotec, Bergisch Gladbach, Germany). Briefly, kidneys were cut into small pieces and placed in 10 ml collagenase (1 mg/ml) in a gentleMACS™ C tube (Miltinyi Biotec, Bergisch Gladbach, Germany). Tissue was dissociated following the manufacturer's recommendations (Miltinyi Biotec, Bergisch Gladbach, Germany). Cells were then incubated for 5 minutes in ACK buffer to lyse red blood cells, filtered and pelleted. Cells were resuspended in 4% paraformaldehyde and stored overnight at 4° C. For quantification of EdU incorporation, the cells were fixed, permeabilized, and stained with an APC EdU Flow Kit according to the manufacturer's instruction (Invitrogen Corporation, Carlsbad, Calif., United States of America). Flow cytometric analysis was performed using a CyAn ADP (Dako, Glostrup, Denmark). For each sample, a minimum of 500,000 cells was analyzed and the data were analyzed using FlowJo software (Tree Star, Inc., Ashland, Oreg., United States of America).
The kidney is relatively quiescent until challenged by a renal insult. Therefore, to determine whether renal cell proliferation was dependent on CDK4/6 activity in vivo, renal cell proliferation was stimulated by treating female FVB wt mice with cisplatin, a known nephrotoxic chemotherapeutic agent. At time 0 hr, mice were started on chow delivering PD0332991 100 mg/kg per day or standard chow with no drug. […]
In general terms: A flow cytometer gives signals particle by particle.

Consider `O=C1NC(=O)c2c1c1c3ccccc3[nH]c1c1[nH]c3cc(Br)ccc3c21` [2BrIC, 2-bromo-12,13-dihydro-5H-indolo[2,3-a]pyrrolo[3,4]-carbazole-5,6-dione], for which the “reduction of the fraction of proliferating B cells (BrdU)” value in experiment [1] is listed as around 10 fold. In addition, in experiment [2], the “proliferation of memory vs naive T cells (BrdU incorporation, Ki67 expression)” value is on record as “more significant decrease in homeostatic proliferation of memory T cells than naive T cells”. In addition, the “homeostatic proliferation of memory vs naive T cells (BrdU incorporation, Ki67 expression)” value in experiment [3] is given as “more significant decrease in homeostatic proliferation of memory T cells than naive T cells”.

Consider `N.N.[Cl][Pt][Cl]` [cisplatin], for which, in experiment [4], the “cells labeled with EdU” value was “approximately 17%”.
